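Grown in 96-well plates, cells were treated for 48 hours with each compound at five concentrations. Insufficient inhibition: endpoint recorded as highest concentration tested. GI50 marks 50% less growth. Definition used: TGI = concentration required for complete inhibition of growth.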
What was measured:
Experiment in all cases: DTP human tumour cell line panel, 48 h
786-0 renal = system: 786-0 renal
A549 NSCLC = system: A549 NSCLC
CAKI-1 renal = system: CAKI-1 renal
CCRF-CEM leukemia = system: CCRF-CEM leukemia
COLO 205 colon = system: COLO 205 colon
DU-145 prostate = system: DU-145 prostate
EKVX NSCLC = system: EKVX NSCLC
HCC-2998 colon = system: HCC-2998 colon
HCT-15 colon = system: HCT-15 colon
HL-60(TB) leukemia = system: HL-60(TB) leukemia
HOP-62 NSCLC = system: HOP-62 NSCLC
HT29 colon = system: HT29 colon
IGROV1 ovarian = system: IGROV1 ovarian
K-562 leukemia = system: K-562 leukemia
KM12 colon = system: KM12 colon
LOX IMVI melanoma = system: LOX IMVI melanoma
M14 melanoma = system: M14 melanoma
MALME-3M melanoma = system: MALME-3M melanoma
MCF7 breast = system: MCF7 breast
MDA-MB-231 breast = system: MDA-MB-231 breast
MDA-N = system: MDA-N
MOLT-4 leukemia = system: MOLT-4 leukemia
NCI-H23 lung = system: NCI-H23 lung
OVCAR-8 ovarian = system: OVCAR-8 ovarian
PC-3 prostate = system: PC-3 prostate
RPMI-8226 leukemia = system: RPMI-8226 leukemia
RXF 393 renal = system: RXF 393 renal
SF-268 CNS = system: SF-268 CNS
SF-295 CNS = system: SF-295 CNS
SK-MEL-28 melanoma = system: SK-MEL-28 melanoma
SK-MEL-5 melanoma = system: SK-MEL-5 melanoma
SK-OV-3 ovarian = system: SK-OV-3 ovarian
SN12C renal = system: SN12C renal
SNB-75 CNS = system: SNB-75 CNS
SR leukemia = system: SR leukemia
SW-620 colon = system: SW-620 colon
T-47D breast = system: T-47D breast
TK-10 renal = system: TK-10 renal
UACC-257 melanoma = system: UACC-257 melanoma
UACC-62 melanoma = system: UACC-62 melanoma
A498 renal = system: A498 renal
ACHN renal = system: ACHN renal
BT-549 breast = system: BT-549 breast
HCT-116 colon = system: HCT-116 colon
HOP-92 NSCLC = system: HOP-92 NSCLC
HS 578T breast = system: HS 578T breast
MDA-MB-435 = system: MDA-MB-435
NCI-H226 lung = system: NCI-H226 lung
NCI-H460 lung = system: NCI-H460 lung
NCI-H522 lung = system: NCI-H522 lung
NCI/ADR-RES ovarian = system: NCI/ADR-RES ovarian
OVCAR-3 ovarian = system: OVCAR-3 ovarian
OVCAR-4 ovarian = system: OVCAR-4 ovarian
OVCAR-5 ovarian = system: OVCAR-5 ovarian
SF-539 CNS = system: SF-539 CNS
SK-MEL-2 melanoma = system: SK-MEL-2 melanoma
SNB-19 CNS = system: SNB-19 CNS
U251 CNS = system: U251 CNS
UO-31 renal = system: UO-31 renal

## C/C(=C\CCC1=CC(=O)OC1)CC[C@@H]1[C@H]2C(=O)CC(C)[C@@]3(C)CC[C@]1(C)[C@@]23C (stereo partly specified)
786-0 renal
  TGI: > 10 µM
A549 NSCLC
  TGI: > 10 µM
CAKI-1 renal
  TGI: > 10 µM
CCRF-CEM leukemia
  TGI: > 10 µM
COLO 205 colon
  TGI: > 10 µM
DU-145 prostate
  TGI: > 10 µM
EKVX NSCLC
  TGI: > 10 µM
HCC-2998 colon
  TGI: > 10 µM
HCT-15 colon
  TGI: > 10 µM
HL-60(TB) leukemia
  TGI: > 10 µM
HOP-62 NSCLC
  TGI: > 10 µM
HT29 colon
  TGI: > 10 µM
IGROV1 ovarian
  TGI: > 10 µM
K-562 leukemia
  TGI: > 10 µM
KM12 colon
  TGI: > 10 µM
LOX IMVI melanoma
  TGI: > 10 µM
M14 melanoma
  TGI: > 10 µM
MALME-3M melanoma
  TGI: > 10 µM
MCF7 breast
  TGI: > 10 µM
MDA-MB-231 breast
  TGI: > 10 µM
MDA-N
  TGI: > 10 µM
MOLT-4 leukemia
  TGI: > 10 µM
NCI-H23 lung
  TGI: > 10 µM
OVCAR-8 ovarian
  TGI: > 10 µM
PC-3 prostate
  TGI: > 10 µM
RPMI-8226 leukemia
  TGI: > 10 µM
RXF 393 renal
  TGI: > 10 µM
SF-268 CNS
  TGI: > 10 µM
SF-295 CNS
  TGI: > 10 µM
SK-MEL-28 melanoma
  TGI: > 10 µM
SK-MEL-5 melanoma
  TGI: > 10 µM
SK-OV-3 ovarian
  TGI: > 10 µM
SN12C renal
  TGI: > 10 µM
SNB-75 CNS
  TGI: > 10 µM
SR leukemia
  TGI: > 10 µM
SW-620 colon
  TGI: > 10 µM
T-47D breast
  TGI: > 10 µM
TK-10 renal
  TGI: > 10 µM
UACC-257 melanoma
  TGI: > 10 µM
UACC-62 melanoma
  TGI: > 10 µM

## Cc1ccc(-c2cc3nc(-c4ccccc4)nc(C(Cl)Cl)n3n2)cc1
786-0 renal
  GI50: 1.06 µM
  TGI: 2.37 µM
A498 renal
  GI50: 0.672 µM
  TGI: 1.39 µM
A549 NSCLC
  GI50: 0.927 µM
  TGI: 2.63 µM
ACHN renal
  GI50: 0.737 µM
  TGI: 1.41 µM
BT-549 breast
  GI50: 15.2 µM
  TGI: > 50 µM
CAKI-1 renal
  GI50: 0.668 µM
  TGI: 1.33 µM
CCRF-CEM leukemia
  GI50: > 50 µM
  TGI: > 50 µM
COLO 205 colon
  GI50: 1.06 µM
  TGI: 2.34 µM
DU-145 prostate
  GI50: 0.573 µM
  TGI: 1.2 µM
EKVX NSCLC
  GI50: 0.752 µM
  TGI: 1.51 µM
HCC-2998 colon
  GI50: 0.891 µM
  TGI: 1.69 µM
HCT-116 colon
  GI50: 0.689 µM
  TGI: 1.61 µM
HCT-15 colon
  GI50: 0.958 µM
  TGI: 3.13 µM
HL-60(TB) leukemia
  GI50: 1.39 µM
  TGI: 4.06 µM
HOP-62 NSCLC
  GI50: 0.666 µM
  TGI: 2.11 µM
HOP-92 NSCLC
  GI50: 0.725 µM
  TGI: 1.62 µM
HS 578T breast
  GI50: 0.932 µM
  TGI: 2.31 µM
HT29 colon
  GI50: 1.2 µM
  TGI: 5.32 µM
IGROV1 ovarian
  GI50: 1.43 µM
  TGI: > 50 µM
K-562 leukemia
  GI50: 1.76 µM
  TGI: > 50 µM
KM12 colon
  GI50: 0.701 µM
  TGI: 1.96 µM
LOX IMVI melanoma
  GI50: > 50 µM
  TGI: > 50 µM
M14 melanoma
  GI50: > 50 µM
  TGI: > 50 µM
MALME-3M melanoma
  GI50: 36.1 µM
  TGI: > 50 µM
MCF7 breast
  GI50: 0.845 µM
  TGI: 4.55 µM
MDA-MB-231 breast
  GI50: 0.628 µM
  TGI: 1.59 µM
MDA-MB-435
  GI50: 1.14 µM
  TGI: 2.71 µM
MOLT-4 leukemia
  GI50: > 50 µM
  TGI: > 50 µM
NCI-H226 lung
  GI50: > 50 µM
  TGI: > 50 µM
NCI-H23 lung
  GI50: 1.95 µM
  TGI: > 50 µM
NCI-H460 lung
  GI50: 0.45 µM
  TGI: 1.42 µM
NCI-H522 lung
  GI50: > 50 µM
  TGI: > 50 µM
NCI/ADR-RES ovarian
  GI50: 0.789 µM
  TGI: 2.42 µM
OVCAR-3 ovarian
  GI50: 0.737 µM
  TGI: 1.47 µM
OVCAR-4 ovarian
  GI50: 0.671 µM
  TGI: 1.73 µM
OVCAR-5 ovarian
  GI50: 1.19 µM
  TGI: 3.31 µM
OVCAR-8 ovarian
  GI50: 1.16 µM
  TGI: 4.74 µM
PC-3 prostate
  GI50: 0.781 µM
  TGI: 2.05 µM
RPMI-8226 leukemia
  GI50: 0.802 µM
  TGI: 3.45 µM
RXF 393 renal
  GI50: 0.845 µM
  TGI: 1.88 µM
SF-268 CNS
  GI50: 1.11 µM
  TGI: 3.53 µM
SF-295 CNS
  GI50: 0.955 µM
  TGI: 1.95 µM
SF-539 CNS
  GI50: 0.911 µM
  TGI: 2.19 µM
SK-MEL-2 melanoma
  GI50: 2.51 µM
  TGI: 19.7 µM
SK-MEL-28 melanoma
  GI50: 1.54 µM
  TGI: 5.32 µM
SK-MEL-5 melanoma
  GI50: > 50 µM
  TGI: > 50 µM
SK-OV-3 ovarian
  GI50: 1.52 µM
  TGI: 18.6 µM
SN12C renal
  GI50: 2.92 µM
  TGI: > 50 µM
SNB-19 CNS
  GI50: 0.759 µM
  TGI: 1.73 µM
SNB-75 CNS
  GI50: 0.295 µM
  TGI: 1.04 µM
SR leukemia
  GI50: 3.73 µM
  TGI: > 50 µM
SW-620 colon
  GI50: 0.851 µM
  TGI: 2.29 µM
T-47D breast
  GI50: 0.718 µM
  TGI: 2.3 µM
TK-10 renal
  GI50: 0.944 µM
  TGI: 1.8 µM
U251 CNS
  GI50: 0.419 µM
  TGI: 1.6 µM
UACC-257 melanoma
  GI50: 1.53 µM
  TGI: 6.68 µM
UACC-62 melanoma
  GI50: 0.933 µM
  TGI: 2.1 µM
UO-31 renal
  GI50: 0.719 µM
  TGI: 1.41 µM

From PubChem BioAssay (NCI)
